Source: patent US8722665B2, “Cinnamido-pyrrolo[2,1-C][1,4]benzodiazepines as potential anticancer agents and process for the preparation thereof” (Council of Scientific & Industrial Research, priority 2008, dated 2014)

Legend:
[1] = system: duplex-form calf thymus DNA (CT-DNA); assay: Thermal denaturation studies with calf thymus DNA; type: binding; conditions: [PBD]:[DNA] molar ratio 1:5, CT-DNA 100 μM, ligand 20 μM, pH 7.00
Method: Compounds have been subjected to thermal denaturation studies with duplex-form calf thymus DNA (CT-DNA) using an modification of a reported procedure (Newman, M. S. Carcinog-compr. Surv. 1976, 1, 203; (b) Hecht, S. S.; Loy, M.; Hoffman, Carcinog-compr. Surv. 1976, 1, 325). Working solutions in aqueous buffer (10 mM NaH2PO4/Na2HPO4, 1 mM Na2EDTA, pH 7.00+0.01) containing CT-DNA (100 μm in phosphate) and the PBD (20 μm) have been prepared by addition of concentrated PBD solutions in DMSO to obtain a fixed [PBD]/[DNA] molar ratio of 1:5. The DNA-PBD solutions have been incubated at 37° C. for 0 and 18 h prior to analysis. Samples have been monitored at 260 nm using a Beckman DU-800 spectrophotometer fitted with high performance temperature controller, and heated at 1° C. min^−1 in the 40-110° C. range. DNA helix→coil transition temperatures (Tm) have been obtained from the maxima in the d(A260)/dT derivative plots. Drug-induced alterations in DNA melting behavior are given by: ΔTm=Tm(DNA+PBD)−Tm(DNA alone), where the Tm value for the PBD-free CT-DNA is 69.1±0.01.
The DNA binding activity for these Cinnamido-pyrrolo[2,1-c][1,4]benzodiazepines have been examined by thermal denaturation studies using calf thymus (CT) DNA. […] The data for the compounds 8b&d, 11b&d, 14b&d and 17b&d is included in Table 1 for comparison.

[2] = system: CNS cell lines; assay: In vitro cytotoxicity (SRB), cancer panel; type: cell-based, human; conditions: average of six to eight cell lines, 48 h exposure
Method: (§1) The compounds were evaluated for in vitro anticancer activity against sixty human tumour cells derived from nine cancer types (leukemia, non-small-cell lung, colon, CNS, melanoma, ovarian, prostate, and breast cancer) as shown in Table 1a. For each compound, dose response curves for each cell line were measured at a minimum of five concentrations at 10 fold dilutions. A protocol of 48 h continuous drug exposure was used and a sulforhodamine B (SRB) protein assay was used to estimate cell viability or growth. The concentration causing 50% cell growth inhibition (GI50), total cell growth inhibition (TGI 0% growth) and 50% cell death (LC50, −50% growth) compared with the control was calculated. The Log10 GI50 (concentration in mol/L causing 50% growth inhibition) values for Cinnamido-pyrrolo[2,1-c][1,4]benzodiazepine (8b) is listed in Table 2.

[3] = system: Melanoma cell lines; assay: In vitro cytotoxicity (SRB), cancer panel; type: cell-based, human; conditions: average of six to eight cell lines, 48 h exposure
Method: as §1

[4] = system: Colon cell lines; assay: In vitro cytotoxicity (SRB), cancer panel; type: cell-based, human; conditions: average of six to eight cell lines, 48 h exposure
Method: as §1

[5] = system: Breast cell lines; assay: In vitro cytotoxicity (SRB), cancer panel; type: cell-based, human; conditions: average of six to eight cell lines, 48 h exposure
Method: as §1

[6] = system: Prostate cell lines; assay: In vitro cytotoxicity (SRB), cancer panel; type: cell-based, human; conditions: average of six to eight cell lines, 48 h exposure
Method: as §1

[7] = system: Leukemia cell lines; assay: In vitro cytotoxicity (SRB), cancer panel; type: cell-based, human; conditions: average of six to eight cell lines, 48 h exposure
Method: as §1

[8] = system: Ovarian cell lines; assay: In vitro cytotoxicity (SRB), cancer panel; type: cell-based, human; conditions: average of six to eight cell lines, 48 h exposure
Method: as §1

[9] = system: Renal cell lines; assay: In vitro cytotoxicity (SRB), cancer panel; type: cell-based, human; conditions: average of six to eight cell lines, 48 h exposure
Method: as §1

[10] = system: Non-small-cell lung cell lines; assay: In vitro cytotoxicity (SRB), cancer panel; type: cell-based, human; conditions: average of six to eight cell lines, 48 h exposure
Method: as §1

[11] = system: MDA-MB-231/ATCC; assay: In vitro cytotoxicity (SRB); type: cell-based, human; conditions: MDA-MB-231/ATCC (Breast); 48 h continuous drug exposure
Method: as §1

[12] = system: RXF 393; assay: In vitro cytotoxicity (SRB); type: cell-based, human; conditions: RXF 393 (Renal); 48 h continuous drug exposure
Method: as §1

[13] = system: RPMI-8226; assay: In vitro cytotoxicity (SRB); type: cell-based, human; conditions: RPMI-8226 (Leukemia); 48 h continuous drug exposure
Method: as §1

[14] = system: SN12C; assay: In vitro cytotoxicity (SRB); type: cell-based, human; conditions: SN12C (Renal); 48 h continuous drug exposure
Method: as §1

[15] = system: HS 578T; assay: In vitro cytotoxicity (SRB); type: cell-based, human; conditions: HS 578T (Breast); 48 h continuous drug exposure
Method: as §1

[16] = system: HCT-116; assay: In vitro cytotoxicity (SRB); type: cell-based, human; conditions: HCT-116 (Colon); 48 h continuous drug exposure
Method: as §1

[17] = system: SW-620; assay: In vitro cytotoxicity (SRB); type: cell-based, human; conditions: SW-620 (Colon); 48 h continuous drug exposure
Method: as §1

[18] = system: HCC-2998; assay: In vitro cytotoxicity (SRB); type: cell-based, human; conditions: HCC-2998 (Colon); 48 h continuous drug exposure
Method: as §1

[19] = system: KM12; assay: In vitro cytotoxicity (SRB); type: cell-based, human; conditions: KM12 (Colon); 48 h continuous drug exposure
Method: as §1

[20] = system: CAKI-1; assay: In vitro cytotoxicity (SRB); type: cell-based, human; conditions: CAKI-1 (Renal); 48 h continuous drug exposure
Method: as §1

[21] = system: SF-539; assay: In vitro cytotoxicity (SRB); type: cell-based, human; conditions: SF-539 (CNS); 48 h continuous drug exposure
Method: as §1

[22] = system: SNB-19; assay: In vitro cytotoxicity (SRB); type: cell-based, human; conditions: SNB-19 (CNS); 48 h continuous drug exposure
Method: as §1

[23] = system: SNB-75; assay: In vitro cytotoxicity (SRB); type: cell-based, human; conditions: SNB-75 (CNS); 48 h continuous drug exposure
Method: as §1

[24] = system: SK-MEL-28; assay: In vitro cytotoxicity (SRB); type: cell-based, human; conditions: SK-MEL-28 (Melanoma); 48 h continuous drug exposure
Method: as §1

[25] = system: MDA-MB-435; assay: In vitro cytotoxicity (SRB); type: cell-based, human; conditions: MDA-MB-435 (Breast); 48 h continuous drug exposure
Method: as §1

[26] = system: NCI-H460; assay: In vitro cytotoxicity (SRB); type: cell-based, human; conditions: NCI-H460 (Non-small cell lung); 48 h continuous drug exposure
Method: as §1

[27] = system: MALME-3M; assay: In vitro cytotoxicity (SRB); type: cell-based, human; conditions: MALME-3M (Melanoma); 48 h continuous drug exposure
Method: as §1

[28] = system: CCRF-CEM; assay: In vitro cytotoxicity (SRB); type: cell-based, human; conditions: CCRF-CEM (Leukemia); 48 h continuous drug exposure
Method: as §1

Compound: COc1cc(/C=C/C(=O)N2CCN(C(=O)c3cc(OC)c(OC)c(OC)c3)CC2)ccc1OCCCOc1cc2c(cc1OC)C(=O)N1CCC[C@H]1C=N2 [8b, 7-methoxy-8-{3-(2-methoxy-4-(E)-3-oxo-3-[4-(3,4,5-trimethoxybenzoyl)piperazino]-1-propenylphenoxy)propoxy}-(11aS)-2,3,5,11^a-tetrahydro-5H-pyrrolo[2,1-c][1,4]benzo-diazepine-5-one]
- (ΔTm ° C.) after incubation at 37° C. for 0 h ([1]; 0 h incubation at 37° C.): 1.2 °C
- (ΔTm ° C.) after incubation at 37° C. for 18 h ([1]; 18 h incubation at 37° C.): 2.1 °C
- Log10 GI50 [2]: −6.78 mol/L
- Log10 GI50 [3]: −6.64 mol/L
- Log10 GI50 [4]: −6.43 mol/L
- Log10 GI50 [5]: −6.51 mol/L
- Log10 GI50 [6]: −6.44 mol/L
- Log10 GI50 [7]: −6.77 mol/L
- Log10 GI50 [8]: −6.36 mol/L
- Log10 GI50 [9]: −6.20 mol/L
- Log10 GI50 [10]: −6.31 mol/L
- GI50 [11]: 230 nM
- GI50 [12]: 200 nM
- GI50 [13]: 650 nM
- GI50 [14]: 330 nM
- GI50 [15]: 310 nM
- GI50 [16]: 200 nM
- GI50 [17]: 190 nM
- GI50 [18]: 360 nM
- GI50 [19]: 280 nM
- GI50 [20]: 1120 nM
- GI50 [21]: 250 nM
- GI50 [22]: 330 nM
- GI50 [23]: 260 nM
- GI50 [24]: 210 nM
- GI50 [25]: 170 nM
- GI50 [26]: 330 nM
- GI50 [27]: 200 nM
- GI50 [28]: 250 nM
